How the values were obtained:
[1] = system: wild-type adipose stem cells; assay: in vitro adipogenic differentiation of adipose stem cells derived from WT mice (oil red staining, Western blot, Real time PCR); format: cell-based
Procedure: (§1) FIG. 6E and FIG. 6F respectively show the mRNA levels of Pparg (FIG. 6E) and Fabp4 (FIG. 6F) after adipogenic differentiation of WT and ICAM-1^−/− mice-derived adipose stem cells under […] or DMSO treatment, using Real time PCR.
(§2) Cultivation of adipose stromal cells The sorted CD31^−CD45^−Sca-1^+PDGFR-α^+ adipose stromal cells as well as CD31^−CD45^−Sca-[…]-1^− and other components were cultured in DMEM low-sugar medium supplemented with 10% FBS alone or in combination. In some experiments, adherent adipose mononuclear cells were directly cultured in DMEM low-sugar medium supplemented with 10% FBS, and immune cells and vascular endothelial cells were removed during the medium exchange and passage steps to obtain simple adipose stromal cells.
(§3) For preparing differentiation medium, 0.5 mM 3-isobutyl-1-methylxanthine (IBMX), 50 μM indomethacin, 10 μg/ml insulin and 0.5 μM dexamethasone were added to 10% FBS of DMEM high glucose medium. When the adipose stromal cells grew to 100% confluence, the differentiation medium was changed and the medium was changed every two days, and it was taken about 5 days until differentiation was completed.
(§4) Rho and ROCK can negatively regulate adipogenic differentiation in a cytoskeleton-dependent or insulin signal-dependent manner, and our RNA-seq data also supports the role of Rho GTPase in adipose differentiation. In order to test whether Rho and ROCK are involved in the inhibitory effect of ICAM-1 on adipogenic differentiation of adipose stem cells, we used ROCK inhibitor Y-27632 to treat adipose stem cells respectively. […] Therefore, ICAM-1 inhibits the adipogenic differentiation of adipose stem cells through the Rho-ROCK pathway.
(§5) In order to verify whether Rho GTPase activity can reverse the excessive adipogenic differentiation caused by ICAM-1 deletion, we used the Rho agonist Rho activator II (RA2), which can constitutively activate RhoGTPase. […] It is important that the difference in the expression of adipogenic differentiation genes between wild-type and ICAM-1^−/− cells is eliminated by Rho

[2] = system: ICAM-1−/− adipose stem cells; assay: in vitro adipogenic differentiation of adipose stem cells derived from ICAM-1−/− mice (oil red staining, Western blot, Real time PCR); format: cell-based
Procedure: as §1, §2, §3, §4, §5

ICAM-1−/− mice = assay: local RA2 injection into right inguinal fat pad of ICAM-1−/− mice with high-fat diet induced obesity; format: in vivo; conditions: RA2 locally into right inguinal fat pad, 10 weeks
Procedure: (§6) FIG. 6L-6N respectively show the visual observation result (FIG. 6L), adipose tissue observation result (FIG. 6M) and statistical analysis of changes in subcutaneous adipose tissue weight (6N) in the right subcutaneous adipose tissue of WT mice and ICAM-1^−/− mice that were given a high-fat diet induced obesity is injected with RA2 (every 2 days, […]).
(§7) This asymmetry is not observed in RA2-treated WT mice and PBS-treated mice (FIG. 6L).

WT mice = assay: local RA2 injection into right inguinal fat pad of WT mice with high-fat diet induced obesity; format: in vivo; conditions: RA2 locally into right inguinal fat pad, 10 weeks
Procedure: as §6, §7

human adipose stem cells = assay: adipogenic differentiation induction of human primary adipose stromal cells (ICAM-1 siRNA knockdown, RA2); format: cell-based; conditions: RA2 treatment during differentiation; FIG. 7H-J
Procedure: FIGS. 7F-7G respectively show the adipogenic differentiation-related gene expression and Rho GTP activity of adipose stem cells during adipogenic differentiation with the expression of ICAM-1 interfered.
FIGS. 7H-7J respectively show the expressions of adipogenic differentiation-related genes (PPARG, CEBPA, FABP4) in adipose stem cells observed with RA2 activated Rho after interfering with ICAM-1 expression.
as §3
First, the expression content of ICAM-1 in human adipose tissue was analyzed. Currently, there is no recognized characteristic molecule of human preadipocytes. […] These ICAM-1^+ cells, like adipose tissue in mice, are mainly located around blood vessels (FIG. 7B). To test the regulatory effect of ICAM-1 on human adipose stem cells, we isolated human primary adipose stromal cells for adipogenic differentiation induction. […]

Molecule | adipogenic differentiation (oil red staining) ([1]; 10 μM Y-27632 compared with DMSO-treated group, wild-type cells, FIG. 6C) | expression level of Perilipin A protein (Western blot) ([1]; Y-27632 vs DMSO, wild-type cells after adipogenic differentiation) | expression of adipogenic differentiation-related proteins and genes (Perilipin A, Pparg, Fabp4) ([1]; inhibiting ROCK (Y-27632 vs DMSO), wild-type cells, FIG. 6D-F) | adipogenic differentiation (oil red staining) ([2]; 10 μM Y-27632 compared with DMSO-treated group, ICAM-1−/− cells, FIG. 6C) | expression level of Perilipin A protein (Western blot) ([2]; Y-27632 vs DMSO, ICAM-1−/− cells after adipogenic differentiation) | expression of adipogenic differentiation-related proteins and genes (Perilipin A, Pparg, Fabp4) ([2]; inhibiting ROCK (Y-27632 vs DMSO), ICAM-1−/− cells, FIG. 6D-F) | adipogenic differentiation ability (oil red staining) ([1]; RA2 added during in vitro differentiation, wild-type cells, FIG. 6G) | adipogenic differentiation genes Pparg, Cebpa, Fabp4, Plin1 (mRNA, Real time PCR) ([1]; Rho GTPase activation by RA2, wild-type cells, FIG. 6H-K) | adipogenic differentiation ability (oil red staining) ([2]; RA2 added during in vitro differentiation, ICAM-1−/− cells, FIG. 6G) | difference in the expression of adipogenic differentiation genes between wild-type and ICAM-1−/− cells ([2]; Rho GTPase activation by RA2, FIG. 6H-K) | adipogenic differentiation genes Pparg, Cebpa, Fabp4, Plin1 (mRNA, Real time PCR) ([2]; Rho GTPase activation by RA2, ICAM-1−/− precursor cells, FIG. 6H-K) | excessive adipogenic differentiation (inguinal fat pads, injected right vs left side) (ICAM-1−/− mice; FIG. 6L) | fat weight (subcutaneous adipose tissue) (ICAM-1−/− mice; every 2 days, FIG. 6M-N) | asymmetry of inguinal fat pads on both sides (WT mice; FIG. 6L) | fat weight (subcutaneous adipose tissue) (WT mice; every 2 days, FIG. 6M-N) | enhancement of adipogenic differentiation of ICAM-1 knock-down cells (PPARG, CEBPA, FABP4 expression) (human adipose stem cells)
C[C@@H](N)[C@H]1CC[C@H](C(=O)Nc2ccncc2)CC1 [Y-27632] | significantly accelerate | significantly increase | significantly increase | no obvious effect | little effect | not obvious | – | – | – | – | – | – | – | – | – | –
Rho activator II [RA2] | – | – | – | – | – | – | not obvious | only Pparg and Fabp4 are significantly changed | significantly inhibited | eliminated | extensive reduction | weakened | significantly reduce | not observed | not | eliminated
